Assay results from patent US11091501B2, “Heterocyclic compounds as RSV inhibitors” (Enanta Pharmaceuticals, Inc., priority 2017, dated 2021).

tested on: Human RSV-A (“Long” strain); assay: RSV in vitro cytoprotection assay (CPE, ATPlite) in HEp-2 cells; type: cell-based; conditions: human respiratory syncytial virus, 96 h; HEp-2 cells, 4-day incubation, ATPlite readout; read-out: Human RSV-A (“Long” strain) EC50
Procedure, shortened: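 HEp-2 cells (8,000/well) given 2-fold serial compound dilutions in duplicate, then infected with sucrose-stabilised RSV-A Long stock. After 4 days, cell viability read by ATPlite luminescence, with a parallel uninfected plate for cytotoxicity. EC50 binned A<0.01 μM, B 0.01-0.05 μM, C>0.05 μM.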

EC50 [nM] | SMILES
< 10 | O=C(Nc1c(Cl)cccc1Cl)c1cc2c(o1)-c1ccc(F)cc1N(C(=O)c1ccc(NC(=O)c3cc4c(nc3N3CC5(CCOCC5)C3)CCCC4)cc1)CC2 [Example 242]
< 10 | Cc1cnc(N2CC3(CCOCC3)C2)c(C(=O)Nc2ccc(C(=O)N3CCc4cc(-c5nc6ccccc6[nH]5)oc4-c4ccc(F)cc43)cc2)c1 [Example 243]
< 10 | O=C(Nc1ccc(C(=O)N2CCc3cc(-c4nc5ccccc5[nH]4)oc3-c3ccc(F)cc32)cc1)c1cc2c(nc1N1CC3(CCOCC3)C1)CCC2 [Example 244]
10 to 50 | O=C(Nc1ccc(C(=O)N2CCc3cc(-c4nc5ccccc5[nH]4)oc3-c3ccc(F)cc32)cc1)c1cc2c(nc1N1CC3(CCOCC3)C1)CCCC2 [Example 245]
< 10 | O=C(Nc1ccccc1)c1cc2c(o1)-c1ccccc1N(C(=O)c1ccc(NC(=O)c3cc4c(nc3N3CC5(CCOCC5)C3)CCC4)cc1)CC2 [Example 246]
< 10 | O=C(Nc1c(F)cccc1F)c1cc2c(o1)-c1ccccc1N(C(=O)c1ccc(NC(=O)c3cc4c(nc3N3CC5(CCOCC5)C3)CCC4)cc1)CC2 [Example 247]
< 10 | O=C(Nc1c(F)cccc1C(F)(F)F)c1cc2c(o1)-c1ccccc1N(C(=O)c1ccc(NC(=O)c3cc4c(nc3N3CC5(CCOCC5)C3)CCC4)cc1)CC2 [Example 248]
< 10 | O=C(Nc1c(F)cccc1Cl)c1cc2c(o1)-c1ccccc1N(C(=O)c1ccc(NC(=O)c3cc4c(nc3N3CC5(CCOCC5)C3)CCC4)cc1)CC2 [Example 249]
< 10 | Cc1cccc(F)c1NC(=O)c1cc2c(o1)-c1ccccc1N(C(=O)c1ccc(NC(=O)c3cc4c(nc3N3CC5(CCOCC5)C3)CCC4)cc1)CC2 [Example 250]
< 10 | O=C(Nc1c(Cl)cccc1Cl)c1cc2c(o1)-c1ccccc1N(C(=O)c1ccc(NC(=O)c3cc4c(nc3N3CC5(CCOCC5)C3)CCC4)cc1)CC2 [Example 251]
< 10 | Cc1cccc(C)c1NC(=O)c1cc2c(o1)-c1ccccc1N(C(=O)c1ccc(NC(=O)c3cc4c(nc3N3CC5(CCOCC5)C3)CCC4)cc1)CC2 [Example 252]
< 10 | O=C(Nc1c(F)cc(F)cc1F)c1cc2c(o1)-c1ccccc1N(C(=O)c1ccc(NC(=O)c3cc4c(nc3N3CC5(CCOCC5)C3)CCC4)cc1)CC2 [Example 253]
< 10 | Cc1ccc(C(=O)Nc2ccc(C(=O)N3CCc4cc(C(=O)Nc5c(F)cccc5F)oc4-c4ccccc43)cc2)c(N2CC3(CCOCC3)C2)n1 [Example 254]
< 10 | O=C(Nc1ccccc1F)c1cc2c(o1)-c1ccccc1N(C(=O)c1ccc(NC(=O)c3cc4c(nc3N3CC5(CCOCC5)C3)CCC4)cc1)CC2 [Example 255]
< 10 | Cc1ccc(C(=O)Nc2ccc(C(=O)N3CCc4cc(C(=O)Nc5c(C)cccc5F)oc4-c4ccccc43)cc2)c(N2CC3(CCOCC3)C2)n1 [Example 256]
< 10 | Cc1ccc(C(=O)Nc2ccc(C(=O)N3CCc4cc(C(=O)Nc5c(F)cc(F)cc5F)oc4-c4ccccc43)cc2)c(N2CC3(CCOCC3)C2)n1 [Example 257]
< 10 | Cc1ccc(C(=O)Nc2ccc(C(=O)N3CCc4cc(C(=O)Nc5ccccc5F)oc4-c4ccccc43)cc2)c(N2CC3(CCOCC3)C2)n1 [Example 258]
< 10 | Cc1ccc(C(=O)Nc2ccc(C(=O)N3CCc4cc(C(=O)Nc5c(F)cccc5Cl)oc4-c4ccccc43)cc2)c(N2CC3(CCOCC3)C2)n1 [Example 259]
< 10 | O=C(Nc1ccc(C(=O)N2CCc3cc(-c4nc5ccccc5[nH]4)oc3-c3ccccc32)cc1)c1cc2c(nc1N1CC3(CCOCC3)C1)CCC2 [Example 260]
< 10 | Cc1cnc(N2CC3(CCOCC3)C2)c(C(=O)Nc2ccc(C(=O)N3CCc4sc(C(=O)Nc5c(F)cccc5F)cc4-c4ccccc43)cc2)c1 [Example 261]
10 to 50 | Cc1cnc(N2CC3(CCOCC3)C2)c(C(=O)Nc2ccc(C(=O)N3CCc4sc(-c5nc6ccccc6[nH]5)cc4-c4ccccc43)cc2)c1 [Example 262]
10 to 50 | O=C(Nc1c(F)cccc1F)c1cc2c(s1)CCN(C(=O)c1ccc(NC(=O)c3cc4c(nc3N3CC5(CCOCC5)C3)CCC4)cc1)c1ccccc1-2 [Example 263]
10 to 50 | O=C(Nc1ccc(C(=O)N2CCc3sc(-c4nc5ccccc5[nH]4)cc3-c3ccccc32)cc1)c1cc2c(nc1N1CC3(CCOCC3)C1)CCC2 [Example 264]
> 50 | Cc1ccc(C(=O)Nc2ccc(C(=O)N3CCc4sc(C(=O)Nc5c(F)cccc5F)cc4-c4ccccc43)cc2)c(N2CC3(CCOCC3)C2)n1 [Example 265]
< 10 | Cc1ccc(C(=O)Nc2ccc(C(=O)N3CCc4sc(-c5nc6ccccc6[nH]5)cc4-c4ccccc43)cc2)c(N2CC3(CCOCC3)C2)n1 [Example 266]
< 10 | Cc1cnc(N2CC3(CCOCC3)C2)c(C(=O)Nc2ccc(C(=O)N3CCc4c(sc(C(=O)Nc5c(F)cccc5F)c4Cl)-c4ccccc43)cc2)c1 [Example 267]
< 10 | Cc1cnc(N2CC3(CCOCC3)C2)c(C(=O)Nc2ccc(C(=O)N3CCc4c(sc(C(=O)Nc5c(C)cccc5F)c4Cl)-c4ccccc43)cc2)c1 [Example 268]

EC50 [nM] | SMILES
10 to 50 | Cc1cnc(N2CC3(CCOCC3)C2)c(C(=O)Nc2ccc(C(=O)N3CCc4c(sc(C(=O)Nc5ccccc5Cl)c4Cl)-c4ccccc43)cc2)c1 [Example 269]
< 10 | Cc1cnc(N2CC3(CCOCC3)C2)c(C(=O)Nc2ccc(C(=O)N3CCc4c(sc(C(=O)Nc5ccccc5F)c4Cl)-c4ccccc43)cc2)c1 [Example 270]
10 to 50 | Cc1cnc(N2CC3(CCOCC3)C2)c(C(=O)Nc2ccc(C(=O)N3CCc4c(sc(C(=O)Nc5c(C)cccc5C)c4Cl)-c4ccccc43)cc2)c1 [Example 271]
< 10 | Cc1cnc(N2CC3(CCOCC3)C2)c(C(=O)Nc2ccc(C(=O)N3CCc4c(sc(-c5nc6ccccc6[nH]5)c4Cl)-c4ccccc43)cc2)c1 [Example 272]
10 to 50 | Cc1cnc(N2CC3(CCOCC3)C2)c(C(=O)Nc2ccc(C(=O)N3CCc4c(sc(-c5nc6ccccc6[nH]5)c4C)-c4ccccc43)cc2)c1 [Example 273]
< 10 | Cc1cnc(N2CC3(CCOCC3)C2)c(C(=O)Nc2ccc(C(=O)N3CCc4c(sc(C(=O)Nc5c(F)cccc5F)c4C)-c4ccccc43)cc2)c1 [Example 274]
< 10 | Cc1cnc(N2CC3(CCOCC3)C2)c(C(=O)Nc2ccc(C(=O)N3CCc4cc(NC(=O)c5c(F)cccc5F)sc4-c4ccccc43)cc2)c1 [Example 275]
10 to 50 | Cc1ccc(C(=O)Nc2ccc(C(=O)N3CCc4cc(C(=O)Nc5c(C)cccc5F)sc4-c4ccccc43)cc2)c(N2CC3(CCOCC3)C2)n1 [Example 276]
10 to 50 | Cc1ccc(C(=O)Nc2ccc(C(=O)N3CCc4cc(NC(=O)c5c(F)cccc5Cl)sc4-c4ccccc43)cc2)c(N2CC3(CCOCC3)C2)n1 [Example 277]
< 10 | Cc1ccc(C(=O)Nc2ccc(C(=O)N3CCc4cc(NC(=O)c5ncccc5F)sc4-c4ccccc43)cc2)c(N2CC3(CCOCC3)C2)n1 [Example 278]
10 to 50 | Cc1cnc(N2CC3(CCOCC3)C2)c(C(=O)Nc2ccc(C(=O)N3CCc4cc(NC(=O)c5c(C)cccc5F)sc4-c4ccccc43)cc2)c1 [Example 281]
< 10 | Cc1cnc(N2CC3(CCOCC3)C2)c(C(=O)Nc2ccc(C(=O)N3CCc4cc(NC(=O)c5c(F)cccc5Cl)sc4-c4ccccc43)cc2)c1 [Example 282]
< 10 | Cc1cnc(N2CC3(CCOCC3)C2)c(C(=O)Nc2ccc(C(=O)N3CCc4cc(NC(=O)c5ncccc5F)sc4-c4ccccc43)cc2)c1 [Example 283]
< 10 | Cc1cnc(N2CC3(CCOCC3)C2)c(C(=O)Nc2ccc(C(=O)N3CCc4cc(NC(=O)c5ccccc5)sc4-c4ccccc43)cc2)c1 [Example 284]
< 10 | Cc1cnc(N2CC3(CCOCC3)C2)c(C(=O)Nc2ccc(C(=O)N3CCc4cc(NC(=O)c5ccccc5F)sc4-c4ccccc43)cc2)c1 [Example 285]
10 to 50 | Cc1cnc(N2CC3(CCOCC3)C2)c(C(=O)Nc2ccc(C(=O)N3CCc4cc(NC(=O)c5c(C)cccc5C)sc4-c4ccccc43)cc2)c1 [Example 286]
10 to 50 | Cc1cnc(N2CC3(CCOCC3)C2)c(C(=O)Nc2ccc(C(=O)N3CCc4cc(NC(=O)c5c(F)cccc5C(F)(F)F)sc4-c4ccccc43)cc2)c1 [Example 287]
> 50 | Cc1cnc(N2CC3(CCOCC3)C2)c(C(=O)Nc2ccc(C(=O)N3CCc4cc(NS(=O)(=O)c5c(F)cccc5F)sc4-c4ccccc43)cc2)c1 [Example 288]
> 50 | Cc1cnc(N2CC3(CCOCC3)C2)c(C(=O)Nc2ccc(C(=O)N3CCc4cc(NS(=O)(=O)c5c(C)cccc5F)sc4-c4ccccc43)cc2)c1 [Example 289]
> 50 | Cc1cnc(N2CC3(CCOCC3)C2)c(C(=O)Nc2ccc(C(=O)N3CCc4cc(NS(=O)(=O)c5ccccc5F)sc4-c4ccccc43)cc2)c1 [Example 290]
> 50 | Cc1cnc(N2CC3(CCOCC3)C2)c(C(=O)Nc2ccc(C(=O)N3CCc4cc(NS(=O)(=O)c5c(F)cccc5Cl)sc4-c4ccccc43)cc2)c1 [Example 291]
< 10 | Cc1cnc(N2CC3(CCOCC3)C2)c(C(=O)Nc2ccc(C(=O)N3CCc4cc(NC(=O)OC5CCC5)sc4-c4ccccc43)cc2)c1 [Example 292]
10 to 50 | Cc1cnc(N2CC3(CCOCC3)C2)c(C(=O)Nc2ccc(C(=O)N3CCc4cc(NC(=O)OC5CCCC5)sc4-c4ccccc43)cc2)c1 [Example 293]
10 to 50 | Cc1cnc(N2CC3(CCOCC3)C2)c(C(=O)Nc2ccc(C(=O)N3CCc4cc(NC(=O)OC5CCCCC5)sc4-c4ccccc43)cc2)c1 [Example 294]
< 10 | Cc1cnc(N2CC3(CCOCC3)C2)c(C(=O)Nc2ccc(C(=O)N3CCc4cc(NC(=O)OCC(F)(F)F)sc4-c4ccccc43)cc2)c1 [Example 295]
< 10 | Cc1cnc(N2CC3(CCOCC3)C2)c(C(=O)Nc2ccc(C(=O)N3CCc4cc(NC(=O)OC(C)C)sc4-c4ccccc43)cc2)c1 [Example 297]

SMILES | EC50 [nM]
Cc1cnc(N2CC3(CCOCC3)C2)c(C(=O)Nc2ccc(C(=O)N3CCc4cc(NC(=O)Oc5ccccc5)sc4-c4ccccc43)cc2)c1 [Example 296] | 10 to 50
